Assays:
ICrl:CD1 (ICR) mice = experiment: Mouse bioluminescence imaging evaluation (Test Example 1); format: in vivo; conditions: Luc DNA-encapsulated lipid nanoparticles 10 mL/kg i.v. to ICR mice; IVIS total flux 15 minutes after luciferin i.p.
Protocol: The Luc DNA-encapsulated lipid nanopatricles obtained in the aforesaid Production Example were intravenously administered to the tails of ICrl:CD1 (ICR) mice (10 mL/kg i.v.). After administration of the lipid particles, luciferin (15 mg/mL) was administered to the mice (10 mL/kg i.p.), which were loaded in an IVIS (in vivo imaging system) apparatus (manufactured by PerkinElmer, Inc.) under isoflurane inhalation anesthesia. Luminescence images of the mice were taken ventrally (in a supine position) 15 minutes after luciferin administration. The luminescence was digitized with the software of IVIS, followed by evaluation using the value of total flux. Higher luminescence means strong expression of the protein encoded by the DNA encapsulate in the lipid particle. In Table 2, higher luminescence is indicated on a scale of A, B and C in order. A represents luminescence of 3.0E+07 or more, B represents luminescence of 1.0E+0.7 or more and less than 3.0E+07, and C represents luminescence of less than 1.0E+07.

[1] = Rate of encapsulation of Luc DNA in lipid nanoparticles; format: physicochemical; parameters: unit: %; conditions: Luc DNA-encapsulated lipid nanoparticles; cationic lipid:DPPC:cholesterol:GM-020=60:10.6:28:1.4 molar ratio
From the text: The concentration and rate of encapsulation of the nucleic acid (e.g., siRNA or mRNA) in the composition of the present invention can be measured by a known approach. For example, the nucleic acid is fluorescently labeled using Quant-iT™ RiboGreen® (Invitrogen Corp.), and the fluorescence intensity can be measured to determine the concentration and the rate of encapsulation. The concentration of the nucleic acid in the composition can be calculated using a calibration curve prepared from aqueous nucleic acid solutions having known concentrations. The rate of encapsulation can be calculated on the basis of the difference in fluorescence intensity between the presence and absence of addition of Triton-X 100 (surfactant for disrupting the lipid particle). The concentration of the nucleic acid in the composition refers to the total concentration of a nucleic acid encapsulated in the lipid particle and an unencapsulated nucleic acid. The rate of encapsulation refers to the ratio of the nucleic acid encapsulated in the lipid particle to all nucleic acids in the composition.
(§1) A lipid mixture containing a cationic lipid of the Examples shown in Table 2 (cationic lipid:DPPC:cholesterol:GM-020=60:10.6:28:1.4, molar ratio) was dissolved in 90% of EtOH and 10% of water to obtain a 15.0 mg/ml lipid solution. Luciferase (luc) DNA (manufactured by Nature Technology Corp.) was dissolved in a 10 mM MES buffer solution (pH 5.5) to obtain a 0.3 mg/ml nucleic acid solution. The obtained lipid solution and nucleic acid solution were mixed at a flow rate ratio of 3 ml/min:6 ml/min at room temperature using NanoAssemblr (manufactured by Precision NanoSystems Inc.) to obtain a dispersion containing Luc DNA-encapsulated lipid nanoparticles. The obtained dispersion was dialyzed against water at room temperature for 1 hour and against PBS at 4° C. for 23 hours using Slyde-A-Lyzer (molecular weight cutoff: 20 K, Thermo Fischer Scientific Inc.). Subsequently, the dialysate was filtered through a 0.2 µm syringe filter (Iwaki). A 60% solution of sucrose in PBS was added thereto, and the mixture was preserved as a 20% solution of sucrose in PBS at −80° C. Analysis results of particle size and rate of encapsulation of the Luc DNA-encapsulated lipid nanoparticles are also shown in Table 2.

[2] = Particle size of Luc DNA-encapsulated lipid nanoparticles; format: physicochemical; conditions: cationic lipid:DPPC:cholesterol:GM-020=60:10.6:28:1.4 molar ratio
From the text: The particle size of the lipid particle (in the composition) can be measured by a known approach. For example, the particle size can be calculated as a Z-average particle size by the cumulant analysis of an autocorrelation function using a particle size measurement apparatus Zetasizer Nano ZS (Malvern Instruments) based on a dynamic light scattering measurement technique. The particle size (average particle size) of the lipid particle (in the composition) is, for example, 10 to 200 nm, preferably 60 to 170 nm.
as §1

SMILES: CCCCCCCOC(=O)CCCCC(=O)OCC(COC(=O)CCCCC(=O)OCCCCCCC)(COC(=O)CCCN(C)C)COC(=O)CC(CCCCCC)CCCCCC [Example 85, 1,1′-[2-({[4-(Dimethylamino)butanoyl]oxy}methyl)-2-{[(3-hexylnonanoyl)oxy]methyl}propane-1,3-diyl] 6,6′-diheptyl dihexanedioate]
- Luminescence (ICrl:CD1 (ICR) mice): B (B represents luminescence of 1.0E+0.7 or more and less than 3.0E+07)
- Rate of encapsulation [1]: 95.4
- Particle size (nm) [2]: 148.3 nm

SMILES: CCCCCCCOC(=O)CCCCCCCC(=O)OCC(COC(=O)CCCCCCCC(=O)OCCCCCCC)(COC(=O)CCCN(C)C)COC(=O)CC(CCCCC)CCCCC [Example 60, 1,1′-[2-({[4-(Dimethylamino)butanoyl]oxy}methyl)-2-{[(3-pentyloctanoyl)oxy]methyl}propane-1,3-diyl] 9,9′-diheptyl dinonanedioate]
- Luminescence (ICrl:CD1 (ICR) mice): A (A represents luminescence of 3.0E+07 or more)
- Rate of encapsulation [1]: 77.6
- Particle size (nm) [2]: 143.9 nm

SMILES: CCCCCCCOC(=O)CCCCC(=O)OCC(COC(=O)CCCN(C)C)(COC(=O)CC(CCC)CCCCCCC)COC(=O)CC(CCC)CCCCCCC (stereo not drawn) [Example 31, 2-({[4-(Dimethylamino)butanoyl]oxy}methyl)-3-[(3-propyldecanoyl)oxy]-2-{[(3-propyldecanoyl)oxy]methyl}propyl heptyl hexanedioate]
- Luminescence (ICrl:CD1 (ICR) mice): A (A represents luminescence of 3.0E+07 or more)
- Rate of encapsulation [1]: 97.1
- Particle size (nm) [2]: 97.9 nm

SMILES: CCCCCCCOC(=O)CCCCC(=O)OCC(COC(=O)CCCCC(=O)OCCCCCCC)(COC(=O)CCCN(C)C)COC(=O)CC(CCCC)CCCC [Example 84, 1,1′-[2-{[(3-Butylheptanoyl)oxy]methyl}-2-({[4-(dimethylamino)butanoyl]oxy}methyl)propane-1,3-diyl] 6,6′-diheptyl dihexanedioate]
- Luminescence (ICrl:CD1 (ICR) mice): B (B represents luminescence of 1.0E+0.7 or more and less than 3.0E+07)
- Rate of encapsulation [1]: 93.5
- Particle size (nm) [2]: 172.6 nm

SMILES: CCCCCCCOC(=O)CCCCC(=O)OCC(COC(=O)CCCCC(=O)OCCCCCCC)(COC(=O)CCCN(CC)CC)COC(=O)CC(CCCCC)CCCCC [Example 14, 1,1′-[2-{{[4-(Diethylamino)butanoyl]oxy}methyl)-2-{[(3-pentyloctanoyl)oxy]methyl}propane-1,3-diyl] 6,6′-diheptyl dihexanedioate]
- Luminescence (ICrl:CD1 (ICR) mice): A (A represents luminescence of 3.0E+07 or more)
- Rate of encapsulation [1]: 94.7
- Particle size (nm) [2]: 145.0 nm

SMILES: CCCCCC(CCCCC)CC(=O)OCC(COC(=O)CCCCC(=O)OCC(CCC)CCC)(COC(=O)CCCCC(=O)OCC(CCC)CCC)COC(=O)CCCN(CC)C(C)C [Example 116, 1,1′-(2-[({4-[Ethyl(propan-2-yl)amino]butanoyl}oxy)methyl]-2-{[(3-pentyloctanoyl)oxy]methyl}propane-1,3-diyl) 6,6′-bis(2-propylpentyl) dihexanedioate]
- Luminescence (ICrl:CD1 (ICR) mice): B (B represents luminescence of 1.0E+0.7 or more and less than 3.0E+07)
- Rate of encapsulation [1]: 97.0
- Particle size (nm) [2]: 122.0 nm

SMILES: CCCCCCCCOC(=O)CCCCC(=O)OCC(COC(=O)CCCN(C)C)(COC(=O)CC(CCCCC)CCCCC)COC(=O)CC(CCCCC)CCCCC [Example 49, 2-({[4-(Dimethylamino)butanoyl]oxy}methyl)-3-[(3-pentyloctanoyl)oxy]-2-{[(3-pentyloctanoyl)oxy]methyl}propyl octyl hexanedioate]
- Luminescence (ICrl:CD1 (ICR) mice): B (B represents luminescence of 1.0E+0.7 or more and less than 3.0E+07)
- Rate of encapsulation [1]: 96.0
- Particle size (nm) [2]: 112.8 nm

SMILES: CCCCCCCOC(=O)CCCCC(=O)OCC(COC(=O)CCCN(CC)CC)(COC(=O)CC(CCCCC)CCCCC)COC(=O)CC(CCCCC)CCCCC [Example 17, 2-({[4-(Diethylamino)butanoyl]oxy}methyl)-3-[(3-pentyloctanoyl)oxy]-2-{[(3-pentyloctanoyl)oxy]methyl}propyl heptyl hexanedioate]
- Luminescence (ICrl:CD1 (ICR) mice): B (B represents luminescence of 1.0E+0.7 or more and less than 3.0E+07)
- Rate of encapsulation [1]: 96.2
- Particle size (nm) [2]: 120.7 nm

SMILES: CCCCCCCOC(=O)CCCCC(=O)OCC(COC(=O)CCCN(C)C)(COC(=O)CC(CCCCC)CCCCC)COC(=O)CC(CCCCC)CCCCC [Example 16, 2-({[4-(Dimethylamino)butanoyl]oxy}methyl)-3-[(3-pentyloctanoyl)oxy]-2-{[(3-pentyloctanoyl)oxy]methyl}propyl heptyl hexanedioate]
- Luminescence (ICrl:CD1 (ICR) mice): B (B represents luminescence of 1.0E+0.7 or more and less than 3.0E+07)
- Rate of encapsulation [1]: 97.0
- Particle size (nm) [2]: 98.4 nm

SMILES: CCCCCC(CCCCC)CC(=O)OCC(COC(=O)CCCCCCCC(=O)OCCCC)(COC(=O)CCCN(C)C)COC(=O)CC(CCCCC)CCCCC [Example 34, Butyl 2-({[4-(dimethylamino)butanoyl]oxy}methyl)-3-[(3-pentyloctanoyl)oxy]-2-{[(3-pentyloctanoyl)oxy]methyl}propyl nonanedioate]
- Luminescence (ICrl:CD1 (ICR) mice): C (C represents luminescence of less than 1.0E+07)
- Rate of encapsulation [1]: 52.7
- Particle size (nm) [2]: 184.3 nm

SMILES: CCCCCOC(=O)CCCCCCC(=O)OCC(COC(=O)CCCCCCC(=O)OCCCCC)(COC(=O)CCCN(C)C)COC(=O)CC(CCCCC)CCCCC [Example 129, 1,1′-[2-({[4-(Dimethylamino)butanoyl]oxy}methyl)-2-{[(3-pentyloctanoyl)oxy]methyl}propane-1,3-diyl] 8,8′-dipentyl dioctanedioate]
- Luminescence (ICrl:CD1 (ICR) mice): A (A represents luminescence of 3.0E+07 or more)
- Rate of encapsulation [1]: 92.6
- Particle size (nm) [2]: 144.9 nm

SMILES: CCCCCCCOC(=O)CCCCC(=O)OCC(COC(=O)CCCCC(=O)OCCCCCCC)(COC(=O)CCCN(CC)C(C)C)COC(=O)CC(CCCCC)CCCCC [Example 91, 1,1′-(2-[({4-[Ethyl(propan-2-yl)amino]butanoyl}oxy)methyl]-2-{[(3-pentyloctanoyl)oxy]methyl}propane-1,3-diyl] 6,6′-diheptyl dihexanedioate]
- Luminescence (ICrl:CD1 (ICR) mice): B (B represents luminescence of 1.0E+0.7 or more and less than 3.0E+07)
- Rate of encapsulation [1]: 96.5
- Particle size (nm) [2]: 111.9 nm

SMILES: CCCCCCOC(=O)CCCCCC(=O)OCC(COC(=O)CCCCCC(=O)OCCCCCC)(COC(=O)CCCN(CC)C(C)C)COC(=O)CC(CCCCC)CCCCC [Example 102, 1,1′-(2-[({4-[Ethyl(propan-2-yl)amino]butanoyl}oxy)methyl]-2-{[(3-pentyloctanoyl)oxy]methyl}propane-1,3-diyl) 7,7′-dihexyl diheptanedioate]
- Luminescence (ICrl:CD1 (ICR) mice): B (B represents luminescence of 1.0E+0.7 or more and less than 3.0E+07)
- Rate of encapsulation [1]: 91.8
- Particle size (nm) [2]: 139.8 nm

SMILES: CCCCCCCCOC(=O)CCCC(=O)OCC(COC(=O)CCCC(=O)OCCCCCCCC)(COC(=O)CCCN(C)C)COC(=O)CC(CCCCC)CCCCC [Example 98, 1,1′-[2-({[4-(Dimethylamino)butanoyl]oxy}methyl)-2-{[(3-pentyloctanoyl)oxy]methyl}propane-1,3-diyl] 5,5′-dioctyl dipentanedioate]
- Luminescence (ICrl:CD1 (ICR) mice): A (A represents luminescence of 3.0E+07 or more)
- Rate of encapsulation [1]: 96.3
- Particle size (nm) [2]: 140.5 nm

Reference: US20250197343A1, “CATIONIC LIPID” (TAKEDA PHARMACEUTICAL COMPANY LIMITED, priority 2021, published 2025)
